{
  "source": "patent US20220023273A1",
  "about": "“METHODS FOR TREATING SYMPTOMS AND DISORDERS ASSOCIATED WITH LYSOSOMAL STORAGE DISEASES” (GENZYME CORPORATION, priority 2019, published 2022)",
  "format_in_all_cases": "in vivo, human",
  "key": {"[1]": {"test_system": "adult patients with Gaucher disease Type 3", "assay": "GD3 clinical study: markers for systemic disease (spleen volume, platelet count, hemoglobin)", "conditions": "GD3, 15 mg/day oral + imiglucerase", "description": "(§1) During the study patients were evaluated for safety and tolerability, CSF and plasma biomarkers (glucosylceramide, GL-1; glucosylsphingosine, lyso-GL1), pharmacokinetics, markers for systemic disease (spleen and liver volume measured by magnetic resonance imaging (MRI), platelet count, hemoglobin levels), indicia of interstitial lung disease (high resolution pulmonary computed tomography (CT)), and horizontal saccadic eye movement.\nIndividual patient data for platelet counts are shown in the table below (shown as 10^9 platelets/L): […]"}, "[2]": {"test_system": "plasma GL-1, GL-3, and GM3", "assay": "Phase 1 Study 2: pharmacodynamics", "description": "The study enrolled and randomized 36 healthy adults (19 men and 17 women) (n=9 each to group).\nPharmacodynamic endpoints (plasma GL-1, GL-3, and GM3 concentrations) were assessed on Days 1-5, 8, 11, 13, and 14, at 0 hours […]; and on Day 15, at 24 hours after the Day 14 dose."}, "[3]": {"test_system": "glucosylceramide (GL-1), glucosylsphingosine (lyso-GL1)", "assay": "GD3 clinical study: CSF and plasma biomarkers GL-1 and lyso-GL1", "conditions": "GD3, 15 mg/day oral + imiglucerase", "description": "as §1\nAt baseline, the mean (±SD) GL-1 concentration in CSF was 7.1±2.8 ng/mL (range 4.4-11.1 ng/mL), while the mean (±SD) lyso-GL-1 concentration in CSF was 39.3±22.9 pg/mL (range 20.1-67.6 pg/mL). For comparison, the healthy GL-1 concentration in CSF is 4.5-5.9 ng/mL, and the healthy level of lyso-GL-1 in CSF is less than 5.0 pg/mL."}, "[4]": {"test_system": "GL-3 inclusions in skin cells", "assay": "Fabry clinical study: skin GL-3 inclusion score by light microscopy", "conditions": "Fabry males", "description": "A three-year open-label investigation of Compound 2 in young classic Fabry disease patients was conducted in order to evaluate the long-term safety, pharmacodynamics and exploratory efficacy of Compound 2 in adult male Fabry patients. Eleven subjects enrolled in the study, and seven subjects completed all aspects of the study. All subjects were males diagnosed with classic Fabry disease confirmed by genotype and residual alpha-galactosidase activity below detection levels (9 of the 11 had nonsense mutation in the GLA gene). All subjects had lyso-GL3 levels in plasma of at least 65 ng/mL and had no prior Fabry disease-specific treatment. The median age of subject was 24 years (range 19-37).\nEach sample was scored independently by 3 pathologists for the presence of GL-3 inclusions on a four-point scale, and rated as 0 (no/trace), 1 (mild), 2 (moderate), or 3 (severe) according to Eng et al., N. Engl. J. Med. 345:9-16 (2001). A single score per patient per time point was derived by taking the score rated by the majority of the three pathologists. If a majority score could not be derived, then the median score was used (resulting in some fractional scores). Plasma samples were also analyzed for GL-3, lyso-GL-3, GL-1 and GM3 at baseline and weeks 12, 26, 52 and 156. Pain scores and abdominal symptoms were analyzed at baseline and weeks 12, 26, 52, 104 and 156 using the SF-36 scoring protocol."}, "[5]": {"assay": "GD3 clinical study: safety and tolerability", "conditions": "GD3, 15 mg/day oral + imiglucerase", "description": "as §1"}, "[6]": {"test_system": "adult patients with Gaucher disease Type 3", "assay": "GD3 clinical study: Scale for Assessment and Rating of Ataxia (SARA)", "description": "The degree of ataxia at baseline and throughout the study was evaluated by the Scale for Assessment and Rating of Ataxia (SARA; Schmitz-Hubsch et al. [2006]), which assesses eight distinct attributes of cerebellar ataxia on a scale of 0-40. The eight attributes are gait, stance, sitting, speech disturbance, finger chase, nose-finger test, fast alternate hand movement, and heel-shin slide. SARA ataxia scoring results for all six patients is presented in the chart below: […]"}, "[7]": {"assay": "Phase 1 Study 2: ascending repeated-dose pharmacokinetics"}, "[8]": {"assay": "Phase 1 studies: safety profile", "description": "In all studies, safety profile was assessed by monitoring treatment-emergent adverse events (TEAEs) through 10 days after last dose of study medication, including serious adverse events [SAEs]), ECG monitoring, laboratory values, and physical examinations."}, "[9]": {"test_system": "adult patients with Gaucher disease Type 3", "assay": "GD3 clinical study: interstitial lung disease by high-resolution CT", "conditions": "after 26 weeks; GD3, 15 mg/day oral + imiglucerase", "description": "as §1\nSeverity of interstitial lung disease was characterized by the percent of lung volume affect by ILD as measured by high-resolution CT in four lung regions (aortic arch, carina, lower zone L3, lower zone L4). Patients were rated as having severe ILD (51-100% of lung volume affected), moderate ILD (26-50% of lung volume affected), mild ILD (1-25% of lung volume affected) or normal (0% of lung volume showing ILD)."}, "[10]": {"test_system": "chitotriosidase (CHITO), GM3, GPNMB, ceramide", "assay": "GD3 clinical study: exploratory biomarkers", "conditions": "GD3, 15 mg/day oral + imiglucerase", "description": "Four exploratory biomarkers were quantified in plasma, serum and/or CSF of GD3 patients at week 4 and week 26: chitotriosidase (CHITO; an enzyme known to be elevated in GD patients) was measured in CSF and serum; GM3 (a glycosphingolipid marker known to be elevated in GD patients) was measured in CSF and plasma; and glycoprotein nonmetastatic melanoma protein B (GPNMB; reportedly a biomarker of neuropathic GD3) was measured in CSF. The results are shown in the table below as percent change from baseline at week 4 and week 26 for each parameter:\nIn addition, exploratory biomarkers were quantified in CSF of GD3 patients: ceramide (the precursor of GL-1), chitotriosidase (CHITO), GM3, and GPNMB."}, "[11]": {"conditions": "healthy adults, 5 mg once daily, Day 14"}, "[12]": {"conditions": "repeated once-daily doses from 5-20 mg"}, "[13]": {"conditions": "healthy volunteers, all Phase 1 studies"}},
  "data": [
    {"smiles": "CC(C)(NC(=O)O[C@@H]1CN2CCC1CC2)c1csc(-c2ccc(F)cc2)n1", "note": "[Compound 2, (S)-quinuclidin-3-yl (2-(2-(4-fluorophenyl)thiazol-4-yl)propan-2-yl)carbamate]", "values": [
      {"measurement": "systemic deterioration", "setting": "[1]; 26 weeks, all patients", "value": "absence of systemic deterioration"},
      {"measurement": "changes in hemoglobin levels", "setting": "[1]; 26 weeks", "value": "no clinically meaningful changes"},
      {"measurement": "patients with reductions in splenic volume of 10% or more", "setting": "[1]; 26 weeks", "value": "Two"},
      {"measurement": "changes in hemoglobin levels", "setting": "[1]; Week 52", "value": "no clinically meaningful changes"},
      {"measurement": "patients with spleen volume reductions", "setting": "[1]; Week 52", "value": "two"},
      {"measurement": "day on which maximal sustained GM3 decreases start", "setting": "[2]; all Compound 2 dose groups", "value": 13, "unit": "days"},
      {"measurement": "Plasma GL-3", "setting": "[2]; all Compound 2 dose groups, low baseline values relative to LLOQ", "value": "decreased with time"},
      {"measurement": "plasma GL-1 and GM3 levels", "setting": "[2]; healthy adults, 5, 10, 20 mg once daily 14 days", "value": "decreased from baseline time- and dose-dependently"},
      {"measurement": "plasma and CSF biomarkers for GD-3", "setting": "[3]; 26 weeks", "value": "significant improvements"},
      {"measurement": "plasma and CSF biomarkers for GD-3", "setting": "[3]; 52 weeks", "value": "sustained significant improvements"},
      {"measurement": "levels of GL-3 inclusions in the skin", "setting": "[4]; 15 mg/day", "value": "consistently reduces the levels of GL-3 inclusions in the skin"},
      {"measurement": "patients with a 1-point reduction in skin GL-3 score", "setting": "[4]; by week 156, 15 mg/day oral", "value": "five"},
      {"measurement": "patients with complete clearance of GL-3 inclusions", "setting": "[4]; by week 156, 15 mg/day oral", "value": "two"},
      {"measurement": "patients with no change in skin GL-3 score", "setting": "[4]; by week 156, 15 mg/day oral", "value": "one"},
      {"measurement": "treatment-emergent adverse events", "setting": "[5]; 26 weeks, all 5 patients", "value": "no serious or lasting treatment-emergent adverse events"},
      {"measurement": "total treatment-emergent adverse events reported", "setting": "[5]; 52 weeks, six patients", "value": 30},
      {"measurement": "severity of treatment-emergent adverse events", "setting": "[5]; 52 weeks, six patients, none considered related to treatment", "value": "mild or moderate in severity"},
      {"measurement": "patients showing improvements in ataxia", "setting": "[6]; 52 weeks, GD3, 15 mg/day oral + imiglucerase", "value": "5 of 6"},
      {"measurement": "SARA stance score, Patient 4", "setting": "[6]; Week 52 (baseline 1), knee pain and toe injury at exam", "value": 5},
      {"measurement": "patients exhibiting an improvement in ataxia, excluding Patient 5", "setting": "[6]; Week 52, GD3, 15 mg/day oral + imiglucerase", "value": "4 out of 5"},
      {"measurement": "AUC0-24, Geometric mean (CV)", "setting": "[7]; [11]", "value": "632 (19) ng · h/mL"},
      {"measurement": "AUC0-24, Mean (SD)", "setting": "[7]; [11]", "value": "642 (121) ng · h/mL"},
      {"measurement": "tmax, median (range)", "setting": "[7]; healthy adults, 10 mg once daily, Day 1", "value": "3.00 (2.00-5.00) h"},
      {"measurement": "tmax, median (range)", "setting": "[7]; healthy adults, 20 mg once daily, Day 14", "value": "3.00 (2.00-8.00) h"},
      {"measurement": "Ctrough values", "setting": "[7]; healthy adults, 5, 10, or 20 mg once daily for 14 days", "value": "reached a plateau after Day 5"},
      {"measurement": "effect of age and gender on accumulation", "setting": "[7]; [12]", "value": "neither age nor gender affected accumulation"},
      {"measurement": "time to steady state", "setting": "[7]; [12]", "value": "≤ 5", "unit": "days"},
      {"measurement": "Vital signs", "setting": "[8]; [13]", "value": "no relevant changes from baseline"},
      {"measurement": "deaths, SAEs, severe TEAEs, discontinuations", "setting": "[8]; [13]", "value": "no deaths, SAEs, severe TEAEs, or TEAEs leading to study discontinuation"},
      {"measurement": "hematologic or biochemical abnormalities", "setting": "[8]; [13]", "value": "No clinically relevant hematologic or biochemical abnormalities"},
      {"measurement": "ECG parameters", "setting": "[8]; single ascending dose and food effect studies", "value": "no relevant changes"},
      {"measurement": "patients showing regression of ILD", "setting": "[9]", "value": "4 out of 5"},
      {"measurement": "GM3 in CSF", "setting": "[10]; 4, 26 and 52 weeks, the four of six patients with measurable GM3 at baseline", "value": "undetectable"},
      {"measurement": "CSF concentrations of ceramide, CHITO or GPNMB", "setting": "[10]; after 52 weeks", "value": "no significant changes"}
    ]}
  ]
}
